Experimental data reported in PubChem BioAssay (NCI).
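Following 48 hours of exposure in 96-well plates, responses at five concentrations were used to interpolate endpoints linearly. The concentration for full growth arrest is given as TGI.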

Assays:
Assay in all cases: DTP human tumour cell line panel, 48 h
ACHN renal = test system: ACHN renal
HL-60(TB) leukemia = test system: HL-60(TB) leukemia
HT29 colon = test system: HT29 colon
SW-620 colon = test system: SW-620 colon
NCI-H460 lung = test system: NCI-H460 lung
786-0 renal = test system: 786-0 renal
SN12C renal = test system: SN12C renal
NCI-H522 lung = test system: NCI-H522 lung
HOP-92 NSCLC = test system: HOP-92 NSCLC
TK-10 renal = test system: TK-10 renal
KM12 colon = test system: KM12 colon
COLO 205 colon = test system: COLO 205 colon
DMS 114 small cell lung = test system: DMS 114 small cell lung
RPMI-8226 leukemia = test system: RPMI-8226 leukemia
HCT-116 colon = test system: HCT-116 colon
RXF-631 renal = test system: RXF-631 renal
UO-31 renal = test system: UO-31 renal
RXF 393 renal = test system: RXF 393 renal
SNB-19 CNS = test system: SNB-19 CNS
CCRF-CEM leukemia = test system: CCRF-CEM leukemia
SK-OV-3 ovarian = test system: SK-OV-3 ovarian
MALME-3M melanoma = test system: MALME-3M melanoma
DMS 273 small cell lung = test system: DMS 273 small cell lung
OVCAR-5 ovarian = test system: OVCAR-5 ovarian
XF 498 CNS = test system: XF 498 CNS
SK-MEL-28 melanoma = test system: SK-MEL-28 melanoma
NCI-H23 lung = test system: NCI-H23 lung
HOP-62 NSCLC = test system: HOP-62 NSCLC
IGROV1 ovarian = test system: IGROV1 ovarian
M19-MEL melanoma = test system: M19-MEL melanoma
UACC-62 melanoma = test system: UACC-62 melanoma
SNB-75 CNS = test system: SNB-75 CNS
M14 melanoma = test system: M14 melanoma
OVCAR-3 ovarian = test system: OVCAR-3 ovarian
SF-539 CNS = test system: SF-539 CNS
DLD-1 colon = test system: DLD-1 colon
SF-295 CNS = test system: SF-295 CNS
SF-268 CNS = test system: SF-268 CNS
OVCAR-4 ovarian = test system: OVCAR-4 ovarian
MOLT-4 leukemia = test system: MOLT-4 leukemia
K-562 leukemia = test system: K-562 leukemia
OVCAR-8 ovarian = test system: OVCAR-8 ovarian
NCI-H226 lung = test system: NCI-H226 lung
KM20L2 colon = test system: KM20L2 colon
U251 CNS = test system: U251 CNS
SK-MEL-5 melanoma = test system: SK-MEL-5 melanoma
UACC-257 melanoma = test system: UACC-257 melanoma
SR leukemia = test system: SR leukemia
HCC-2998 colon = test system: HCC-2998 colon
LOX IMVI melanoma = test system: LOX IMVI melanoma
A549 NSCLC = test system: A549 NSCLC
LXFL 529 NSCLC = test system: LXFL 529 NSCLC
CAKI-1 renal = test system: CAKI-1 renal
A498 renal = test system: A498 renal
HCT-15 colon = test system: HCT-15 colon
SNB-78 CNS = test system: SNB-78 CNS
EKVX NSCLC = test system: EKVX NSCLC
SK-MEL-2 melanoma = test system: SK-MEL-2 melanoma

Measured: TGI

CN(O)C(=O)c1ccccc1
not listed: A498 renal | HCT-15 colon | SNB-78 CNS | EKVX NSCLC | SK-MEL-2 melanoma
> 100 µM: all other assays above

O=C(c1ccccc1)N1C2C3CC(OCc4ccccc4)(OCc4ccccc4)C(O3)C21 (centres undefined)
not listed: HT29 colon | KM12 colon | DMS 273 small cell lung | OVCAR-3 ovarian | SF-295 CNS | UACC-257 melanoma | SR leukemia
> 100 µM: all other assays above

C/C(CC(=O)Nc1ccccc1[N+](=O)[O-])=N\NC(N)=O
not listed: SN12C renal | SNB-19 CNS | DMS 273 small cell lung | OVCAR-4 ovarian | SR leukemia | CAKI-1 renal | A498 renal | HCT-15 colon
> 100 µM: all other assays above
